The record followed here is article PMC6792352, “Limited Chemical Structural Diversity Found to Modulate Thyroid Hormone Receptor in the Tox21 Chemical Library” (Environmental Health Perspectives, 2019).

Each structure is given as a SMILES string. Where a name gives a salt, the structure may show the parent alone. Some results are limits rather than exact numbers.

In general, CC50 refers to the concentration at which the toxic effect on the cells reaches its halfway point.

The series can be described thus: in vitro. The settings on record: rat, gh3-tre-luc cells.

Consider `CC1=C(Br)C(=O)C(Br)=C/C1=C(/c1ccccc1S(=O)(=O)O)c1cc(Br)c(O)c(Br)c1C` [Bromocresol green sodium salt], for which the CC50 at 24 h (AC50 (uM) modified / 1000) stood at 44.7 µM.
As to `CCCCCNC(=N)N/N=C/c1c[nH]c2ccc(OC)cc12` [Tegaserod], the CC50 at 24 h (AC50 (uM) modified / 1000) is > 50 µM.
In the case of `CC(C)(C)[C@H](O)[C@H](Cc1ccc(Cl)cc1)n1cncn1` (racemic) [Paclobutrazol], where the note is “AC50 (uM) modified / 1000”, the cytotoxic concentration (CC50) at 24 h is > 90 µM.
For the compound `O=C(O)Cc1ccccc1` [Phenylacetic acid], the cytotoxic concentration (CC50) at 24 h is > 50 µM (AC50 (uM) modified / 1000, Tox21_110001=Tox21_113042, viability, 1 nM T3 present, 24 h) and > 90 µM (AC50 (uM) modified / 1000, Tox21_110001=Tox21_200533, viability, 1 nM T3 present, 24 h).
Turning to `CN(C)CCOC(C)(c1ccccc1)c1ccccn1` (stereo not drawn) [Doxylamine succinate], the CC50 at 24 h (AC50 (uM) modified / 1000) is > 50 µM.
Regarding `COCCOCCOCCOCCO` [2,5,8,11-Tetraoxatridecan-13-ol], the CC50 at 24 h (AC50 (uM) modified / 1000) is > 90 µM.
On to `CCCCCCCCCCCCBr` [1-Bromododecane], for which the half-maximal cytotoxic concentration (CC50) at 24 h (AC50 (uM) modified / 1000, Tox21_110001=Tox21_302046, viability, 1 nM T3 present, 24 h) was > 90 µM.
With `O=C(NCO)NCO` [Dimethylolurea], the CC50 at 24 h (AC50 (uM) modified / 1000) is > 100 µM.
Regarding `CO[C@H]1/C=C/O[C@@]2(C)Oc3c(C)c(O)c4c(O)c(cc(O)c4c3C2=O)NC(=O)/C(C)=C\C=C\[C@H](C)[C@H](O)[C@@H](C)[C@@H](O)[C@@H](C)[C@H](OC(C)=O)[C@@H]1C` [Rifamycin SV sodium salt], the CC50 at 24 h (AC50 (uM) modified / 1000) was 50.2 µM. In other words, the double-digit micromolar range.
On the same count and under the same terms, the result for `O=P1(N(CCCl)CCCl)NCCCO1` (stereo not drawn) [Cyclophosphamide monohydrate] reads > 90 µM.
Turning to `CC(C)(C)NCC(O)c1cc(Cl)c(N)c(Cl)c1` (stereo not drawn) [Clenbuterol], the CC50 at 24 h (AC50 (uM) modified / 1000, Tox21_110001=Tox21_112016, viability, 1 nM T3 present, 24 h) amounted to 31.8 µM. This lies in the double-digit micromolar range.
In the case of `COc1ccc(C(CN(C)C)C2(O)CCCCC2)cc1` (stereo not drawn) [Venlafaxine hydrochloride], the CC50 at 24 h (AC50 (uM) modified / 1000) is > 90 µM.
On to `CCCCN(CCCC)CCCCCCN(CCCC)CCCC` [N,N,N',N'-Tetrabutyl-1,6-hexanediamine], for which, where the note is “AC50 (uM) modified / 1000”, the CC50 at 24 h was > 90 µM.
Same read-out and setting: the result for `Nc1nc(Cl)cc(Cl)n1` [2-Amino-4,6-dichloropyrimidine] reads > 90 µM; that for `O=C(c1ccccc1)C1(O)CCCCC1` [(1-Hydroxycyclohexyl)(phenyl)methanone], > 90 µM; that for `CCCCCCCCCCCCCOC(=O)CCSCCC(=O)OCCCCCCCCCCCCC` [Di(tridecyl) thiodipropionate], > 20 µM.
Turning to `CCC(=O)OC(C)c1ccccc1` (stereo not drawn) [1-Phenylethyl propionate], under “AC50 (uM) modified / 1000”, the CC50 at 24 h is > 90 µM.
Take `CCCC(=O)O[C@]1(C(=O)COC(=O)CC)CC[C@H]2[C@@H]3CCC4=CC(=O)CC[C@]4(C)[C@H]3[C@@H](O)C[C@@]21C` [Hydrocortisone buteprate]: the cytotoxic concentration (CC50) at 24 h (AC50 (uM) modified / 1000) is > 50 µM.
For the compound `CCCCCCNC(=O)n1cc(F)c(=O)[nH]c1=O` [Carmofur], the cytotoxic concentration (CC50) at 24 h (AC50 (uM) modified / 1000) is 8.69 µM.
Still for that read-out and setting: as for `CN(C)c1ccc(SC#N)cc1` [4-(Dimethylamino)phenylthiocyanate], the figure is > 90 µM.
Same read-out and setting: the result for `CC1(O)CCC(C(C)(C)O)CC1` (stereo not drawn) [Terpin] reads > 50 µM; that for `C[C@@H]1CCC[C@H](C)N1NC(=O)c1ccc(Cl)c(S(N)(=O)=O)c1` [Clopamide], > 20 µM.
For the compound `N#CC1(N2CCCCC2)CCCCC1` [1-Piperidinocyclohexanecarbonitrile], the cytotoxic concentration (CC50) at 24 h (AC50 (uM) modified / 1000, Tox21_110001=Tox21_111849, viability, 1 nM T3 present, 24 h) was > 50 µM.
On to `CCN(CC)CCOCCOC(=O)C(CC)(CC)c1ccccc1` [Oxeladin citrate], for which the CC50 at 24 h (AC50 (uM) modified / 1000) was 27.1 µM.
Same read-out and setting: the result for `COC(=O)c1ccccc1Cl` [Methyl 2-chlorobenzoate] reads > 90 µM; that for `c1ccc(-c2ccccc2)cc1` [Biphenyl], > 90 µM.
Regarding `Cc1cc(OC(=O)N(C)C)nn1C(=O)N(C)C` [Dimetilan], for the setting “AC50 (uM) modified / 1000, Tox21_110001=Tox21_301855, viability, 1 nM T3 present, 24 h”, the half-maximal cytotoxic concentration (CC50) at 24 h is > 90 µM.
With `CC1(C)CCC[C@]2(C)[C@H]3CCO[C@]3(C)CC[C@@H]12` [(-)-Ambroxide], the CC50 at 24 h (AC50 (uM) modified / 1000) was > 90 µM.
Regarding `Cc1cccc(Br)c1` [3-Bromotoluene], under “AC50 (uM) modified / 1000”, the CC50 at 24 h is > 90 µM.
Same read-out and setting: the result for `N#CC1(N=NC2(C#N)CCCCC2)CCCCC1` [1,1'-Diazene-1,2-diyldicyclohexanecarbonitrile] reads > 90 µM; that for `CC(C)(C)c1ccc(CN2CCN(C(c3ccccc3)c3ccc(Cl)cc3)CC2)cc1` (stereo not drawn) [Buclizine dihydrochloride], 32.6 µM.
On the same count and under the same terms, the result for `Cc1c(N)nc([C@H](CC(N)=O)NC[C@H](N)C(N)=O)nc1C(=O)N[C@H](C(=O)N[C@H](C)[C@@H](O)[C@H](C)C(=O)N[C@H](C(=O)NCCc1nc(-c2nc(C(=O)NCCCN[C@@H](C)c3ccccc3)cs2)cs1)[C@@H](C)O)[C@@H](O[C@@H]1O[C@@H](CO)[C@@H](O)[C@H](O)[C@@H]1O[C@H]1O[C@H](CO)[C@@H](O)[C@H](OC(N)=O)[C@@H]1O)c1c[nH]cn1` [Peplomycin sulfate] reads 2.77 µM; that for `CC(=O)O[C@@H]1C[C@H]2CC[C@]1(C)C2(C)C` [Isobornyl acetate], > 90 µM.
The same measure, in the same setting: the result for `CCC(C)C1CCCCC1=O` (stereo not drawn) [2-sec-Butylcyclohexanone] reads > 90 µM.
For the compound `CC1=NN(c2cccc(S(=O)(=O)O)c2)C(=O)C1` [3-(3-Methyl-5-oxo-4,5-dihydro-1H-pyrazol-1-yl)benzenesulfonic acid], the CC50 at 24 h (AC50 (uM) modified / 1000) was > 90 µM.
In turn, `CN[C@H]1CC[C@@H](c2ccc(Cl)c(Cl)c2)c2ccccc21` [Sertraline hydrochloride] registered a CC50 at 24 h (AC50 (uM) modified / 1000) of 7.85 µM.
Same read-out and setting: as for `Cc1ncc(COP(=O)(O)O)c(C=O)c1O` [Pyridoxal phosphate hydrate], the figure is > 50 µM.
Same read-out and setting: as for `COc1ccc2c3c1O[C@H]1[C@H](O)CC[C@H]4[C@@H](C2)N(C)CC[C@@]341` [Dihydroisocodeine], the figure is > 90 µM; as for `CC(=O)OCC(=O)[C@@]1(O)CC[C@H]2[C@@H]3CCC4=CC(=O)CC[C@]4(C)C3=CC[C@@]21C` [Anecortave acetate], > 50 µM; as for `CC(=O)OC1CCCCC1C(C)(C)C` (stereo not drawn) [2-tert-Butylcyclohexyl acetate], > 90 µM.
For the compound `CC(=O)Nc1cccc(N)c1` [3-Aminoacetanilide], the 50% cytotoxic concentration (CC50) at 24 h (AC50 (uM) modified / 1000) is > 90 µM.
Consider `CCC1(c2cnc[nH]2)Cc2ccccc2C1` [Atipamezole hydrochloride], for which, where the note is “AC50 (uM) modified / 1000”, the CC50 at 24 h was > 50 µM.
In the case of `Cn1cnc2c(O)nc(N)nc21` [9-Methylguanine], for the setting “AC50 (uM) modified / 1000”, the CC50 at 24 h is > 90 µM.
With `ClC(Cl)(Cl)C(Cl)(Cl)Cl` [Hexachloroethane], the CC50 at 24 h (AC50 (uM) modified / 1000, Tox21_110001=Tox21_200724, viability, 1 nM T3 present, 24 h) was > 90 µM.
As to `O=[N+]([O-])c1ccc(Cl)c(Cl)c1` [3,4-Dichloronitrobenzene], where the note is “AC50 (uM) modified / 1000, Tox21_110001=Tox21_201613, viability, 1 nM T3 present, 24 h”, the 50% cytotoxic concentration (CC50) at 24 h is > 90 µM.
Consider `Cn1c(=O)c2c(ncn2CCOC(=O)C(C)(C)Oc2ccc(Cl)cc2)n(C)c1=O` [Etofylline clofibrate], for which the CC50 at 24 h (AC50 (uM) modified / 1000) was > 50 µM.
`Cc1c[nH]c(=S)[nH]c1=O` [5-Methyl-2-thiouracil]: the CC50 at 24 h (AC50 (uM) modified / 1000) was > 90 µM.
As to `O=C(O)[C@@H]1CCCN1` [Proline], under “AC50 (uM) modified / 1000”, the CC50 at 24 h was > 50 µM.
As for `NCc1ccccc1` [Benzylamine], the CC50 at 24 h (AC50 (uM) modified / 1000) was > 90 µM.
On to `O=C(O)c1nn(Cc2ccc(Cl)cc2Cl)c2ccccc12` [Lonidamine], for which the CC50 at 24 h (AC50 (uM) modified / 1000) is > 90 µM.
On the same count and under the same terms, the result for `C[C@@H]1O[C@@H]1P(=O)(O)O` [Fosfomycin calcium] reads > 50 µM.
Regarding `CCCCCCCCCCCCCC[n+]1ccc(C)cc1` [Miripirium chloride], where the note is “AC50 (uM) modified / 1000”, the half-maximal cytotoxic concentration (CC50) at 24 h was 7.5 µM.
For `Cc1ccc([N+](=O)[O-])cc1C` [1,2-Dimethyl-4-nitrobenzene], the 50% cytotoxic concentration (CC50) at 24 h (AC50 (uM) modified / 1000, Tox21_110001=Tox21_201332, viability, 1 nM T3 present, 24 h) was > 90 µM.
Consider `Clc1cccc(Cl)c1` [1,3-Dichlorobenzene], for which the CC50 at 24 h (AC50 (uM) modified / 1000) is > 90 µM.
On to `CC(=O)OC(C)OC(C)=O` [1,1-Ethanediol diacetate], for which the CC50 at 24 h (AC50 (uM) modified / 1000) was > 90 µM.
On the same count and under the same terms, as for `CNCC(=O)c1ccc(O)c(O)c1` [Adrenone], the figure is > 50 µM; as for `O=[N+]([O-])c1ccc2[nH]cnc2c1` [6-Nitrobenzimidazole], > 90 µM.
The same measure, in the same setting: as for `CCCCCCCCS(=O)(=O)Cl` [1-Octanesulfonyl chloride], the figure is > 90 µM.
Regarding `COC(=O)c1cc(Cl)ccc1[N+](=O)[O-]` [Methyl 5-chloro-2-nitrobenzoate], the CC50 at 24 h (AC50 (uM) modified / 1000) is > 90 µM.
In the case of `CC(C)(C1CCC(O)CC1)C1CCC(O)CC1` (stereo not drawn) [4,4'-Propane-2,2-diyldicyclohexanol], for the setting “AC50 (uM) modified / 1000”, the half-maximal cytotoxic concentration (CC50) at 24 h is > 90 µM.
As for `Cc1cnc2c(C(=O)O)c(Cl)ccc2c1` [Quinmerac], the 50% cytotoxic concentration (CC50) at 24 h (AC50 (uM) modified / 1000) was > 90 µM.
The same measure, in the same setting: as for `Cc1cccc(C(=O)O)c1` [3-Methylbenzoic acid], the figure is > 90 µM.
Regarding `COc1ccc([C@@H]2CC(=O)c3c(O)cc(O[C@@H]4O[C@H](CO[C@@H]5O[C@@H](C)[C@H](O)[C@@H](O)[C@H]5O)[C@@H](O)[C@H](O)[C@H]4O)cc3O2)cc1O` [Hesperidin], the CC50 at 24 h (AC50 (uM) modified / 1000) was > 20 µM.
With `CC/C=C/CCCCCCCCC1CC(=O)OC1=O` (stereo not drawn) [(Tetrapropenyl)succinic anhydride], the CC50 at 24 h (AC50 (uM) modified / 1000) was > 90 µM.
As to `CCCCCCCCCCCC(=O)OC[C@@H](O)[C@H]1OC[C@H](O)[C@H]1O` [Sorbitan monododecanoate], the CC50 at 24 h (AC50 (uM) modified / 1000) was > 50 µM.
On the same count and under the same terms, the result for `O=C(CCN1CCC(c2ccccc2)C1)c1ccc2c(c1)OCCO2` (stereo not drawn) [Proroxan] reads 38.9 µM; that for `CC(=O)Nc1ncc([N+](=O)[O-])s1` [Nithiamide], > 50 µM; that for `Nc1ccc(O)c([N+](=O)[O-])c1` [4-Amino-2-nitrophenol], > 90 µM.
